Assay results from patent US20080153896A1, “Polymorphic Forms of an HMG-CoA Reductase Inhibitor and Uses Thereof” (priority 2006, published 2008).

Assay: Stability (integrity) testing of amorphous and polymorphic form under storage conditions, RP-HPLC
Type: physicochemical
Design: Impurity RRT 1.104 / Impurity RRT 1.698: unit not given beside the values
Description: The integrity of the different forms of the (3R, 5R)-7-[2-(4-fluorophenyl)-5-isopropyl-3-phenyl-4-[(4-hydroxymethylphenylamino)carbonyl]-pyrrol-1-yl]-3,5-dihydroxy-heptanoic acid, hemi calcium salt, was tested under different atmospheric conditions to determine the stability of the amorphous and polymorphic form of the drug in various storage environments. Reversed Phase-HPLC (RP-HPLC) was used to separate (3R, 5R)-7-[2-(4-fluorophenyl)-5-isopropyl-3-phenyl-4-[(4-hydroxymethylphenylamino)carbonyl]-pyrrol-1-yl]-3,5-dihydroxy-heptanoic acid, hemi calcium salt, from smaller molecules representing breakdown products as well as oxidized drug. The relative amount of the drug was reported as a percent of total absorption by UV. The total peak area of all UV absorption impurities was used to define total impurity of the drug. Impurities are defined by their relative retention time (RRT) compared to native drug. Samples were injected onto a C18 column using standard temperature, gradient and run-time conditions.
The results of this integrity testing for the amorphous form of (3R, 5R)-7-[2-(4-fluorophenyl)-5-isopropyl-3-phenyl-4-[(4-hydroxymethylphenylamino)carbonyl]-pyrrol-1-yl]-3,5-dihydroxy-heptanoic acid, hemi calcium salt, is shown in Table 5.
Three separate batches of polymorphic Form I of (3R, 5R)-7-[2-(4-fluorophenyl)-5-isopropyl-3-phenyl-4-[(4-hydroxymethylphenylamino)carbonyl]-pyrrol-1-yl]-3,5-dihydroxy-heptanoic acid, hemi calcium salt, were prepared and tested under the same atmospheric conditions described for the amorphous form.

[1] = 25° C./60% RH 3M, hemi calcium salt
[2] = 25° C./60% RH 9M, hemi calcium salt

CC(C)c1c(C(=O)Nc2ccc(CO)cc2)c(-c2ccccc2)c(-c2ccc(F)cc2)n1CC[C@@H](O)C[C@@H](O)CC(=O)[O-].CC(C)c1c(C(=O)Nc2ccc(CO)cc2)c(-c2ccccc2)c(-c2ccc(F)cc2)n1CC[C@@H](O)C[C@@H](O)CC(=O)[O-].[Ca+2] [PP00105, (3R, 5R)-7-[2-(4-fluorophenyl)-5-isopropyl-3-phenyl-4-[(4-hydroxymethylphenylamino)carbonyl]-pyrrol-1-yl]-3,5-dihydroxy-heptanoic acid, hemi calcium salt]
Description (5° C. 1M): White
Impurity RRT 1.096 (5° C. 1M): 0.248
Impurity RRT 1.183 (5° C. 1M): 0.051
Impurity RRT 1.439 (5° C. 1M): 0.17
Impurity RRT 1.596 (5° C. 1M): 0.086
Impurity RRT 1.698 (5° C. 1M): 0.068
Assay (5° C. 1M, hemi calcium salt): 98.36 % W/W
Highest Impurity (5° C. 1M, hemi calcium salt): 0.459
Impurity RRT 0.935 (5° C. 1M, hemi calcium salt): 0.412
Impurity RRT 1.045 (5° C. 1M, hemi calcium salt): 0.459
Impurity RRT 1.64 (5° C. 1M, hemi calcium salt): 0.063
Total Impurity (5° C. 1M, hemi calcium salt): 1.56
Water (5° C. 1M, hemi calcium salt): 4.45 % W/W
Description (5° C. 2M): White
Impurity RRT 1.096 (5° C. 2M): 0.233
Impurity RRT 1.183 (5° C. 2M): 0.06
Impurity RRT 1.439 (5° C. 2M): 0.163
Impurity RRT 1.596 (5° C. 2M): 0.079
Impurity RRT 1.698 (5° C. 2M): 0.07
Assay (5° C. 2M, hemi calcium salt): 98.24 % W/W
Highest Impurity (5° C. 2M, hemi calcium salt): 0.443
Impurity RRT 0.935 (5° C. 2M, hemi calcium salt): 0.413
Impurity RRT 1.045 (5° C. 2M, hemi calcium salt): 0.443
Impurity RRT 1.64 (5° C. 2M, hemi calcium salt): 0.06
Total Impurity (5° C. 2M, hemi calcium salt): 1.52
Water (5° C. 2M, hemi calcium salt): 4.31 % W/W
Description (5° C. 3M): White
Impurity RRT 1.096 (5° C. 3M): 0.216
Impurity RRT 1.439 (5° C. 3M): 0.150
Impurity RRT 1.596 (5° C. 3M): 0.068
Impurity RRT 1.698 (5° C. 3M): 0.068
Total Impurity (5° C. 3M): 1.35
Assay (5° C. 3M, hemi calcium salt): 98.19 % W/W
Highest Impurity (5° C. 3M, hemi calcium salt): 0.414
Impurity RRT 0.935 (5° C. 3M, hemi calcium salt): 0.376
Impurity RRT 1.045 (5° C. 3M, hemi calcium salt): 0.414
Impurity RRT 1.64 (5° C. 3M, hemi calcium salt): 0.055
Water (5° C. 3M, hemi calcium salt): 3.90 % W/W
Description (5° C. 4M): White
Impurity RRT 0.138 (5° C. 4M): 0.228
Impurity RRT 1.096 (5° C. 4M): 0.205
Impurity RRT 1.439 (5° C. 4M): 0.159
Impurity RRT 1.596 (5° C. 4M): 0.060
Impurity RRT 1.698 (5° C. 4M): 0.052
Assay (5° C. 4M, hemi calcium salt): 98.17 % W/W
Highest Impurity (5° C. 4M, hemi calcium salt): 0.427
Impurity RRT 0.935 (5° C. 4M, hemi calcium salt): 0.341
Impurity RRT 1.045 (5° C. 4M, hemi calcium salt): 0.427
Impurity RRT 1.640 (5° C. 4M, hemi calcium salt): 0.051
Total Impurity (5° C. 4M, hemi calcium salt): 1.523
Water (5° C. 4M, hemi calcium salt): 5.08 % W/W
Description (5° C. 5M): White
Impurity RRT 0.138 (5° C. 5M): 0.22
Impurity RRT 1.096 (5° C. 5M): 0.236
Impurity RRT 1.439 (5° C. 5M): 0.122
Impurity RRT 1.596 (5° C. 5M): 0.054
Impurity RRT 1.698 (5° C. 5M): 0.065
Assay (5° C. 5M, hemi calcium salt): 98.27 % W/W
Highest Impurity (5° C. 5M, hemi calcium salt): 0.401
Impurity RRT 0.935 (5° C. 5M, hemi calcium salt): 0.373
Impurity RRT 1.045 (5° C. 5M, hemi calcium salt): 0.401
Impurity RRT 1.640 (5° C. 5M, hemi calcium salt): 0.047
Total Impurity (5° C. 5M, hemi calcium salt): 1.527
Water (5° C. 5M, hemi calcium salt): 4.67 % W/W
Description (5° C. 6M): White
Impurity RRT 0.138 (5° C. 6M): 0.238
Impurity RRT 1.096 (5° C. 6M): 0.189
Impurity RRT 1.183 (5° C. 6M): 0.056
Impurity RRT 1.439 (5° C. 6M): 0.146
Impurity RRT 1.596 (5° C. 6M): 0.080
Impurity RRT 1.698 (5° C. 6M): 0.059
Water (5° C. 6M): 5.04 % W/W
Assay (5° C. 6M, hemi calcium salt): 98.61 % W/W
Highest Impurity (5° C. 6M, hemi calcium salt): 0.438
Impurity RRT 0.935 (5° C. 6M, hemi calcium salt): 0.373
Impurity RRT 1.045 (5° C. 6M, hemi calcium salt): 0.438
Impurity RRT 1.640 (5° C. 6M, hemi calcium salt): 0.048
Total Impurity (5° C. 6M, hemi calcium salt): 1.627
Description (5° C. 9M): White
Impurity RRT 0.138 (5° C. 9M): 0.228
Impurity RRT 1.096 (5° C. 9M): 0.205
Impurity RRT 1.439 (5° C. 9M): 0.188
Impurity RRT 1.596 (5° C. 9M): 0.061
Impurity RRT 1.698 (5° C. 9M): 0.082
Assay (5° C. 9M, hemi calcium salt): 97.96 % W/W
Highest Impurity (5° C. 9M, hemi calcium salt): 0.400
Impurity RRT 0.935 (5° C. 9M, hemi calcium salt): 0.366
Impurity RRT 1.045 (5° C. 9M, hemi calcium salt): 0.400
Impurity RRT 1.640 (5° C. 9M, hemi calcium salt): 0.056
Total Impurity (5° C. 9M, hemi calcium salt): 1.586
Water (5° C. 9M, hemi calcium salt): 4.64 % W/W
Description (5° C. 12M): White
Impurity RRT 0.138 (5° C. 12M): 0.259
Impurity RRT 1.096 (5° C. 12M): 0.208
Impurity RRT 1.183 (5° C. 12M): 0.033
Impurity RRT 1.439 (5° C. 12M): 0.141
Impurity RRT 1.596 (5° C. 12M): 0.053
Impurity RRT 1.698 (5° C. 12M): 0.045
Assay (5° C. 12M, hemi calcium salt): 98.27 % W/W
Highest Impurity (5° C. 12M, hemi calcium salt): 0.412
Impurity RRT 0.935 (5° C. 12M, hemi calcium salt): 0.392
Impurity RRT 1.045 (5° C. 12M, hemi calcium salt): 0.412
Impurity RRT 1.640 (5° C. 12M, hemi calcium salt): 0.050
Total Impurity (5° C. 12M, hemi calcium salt): 1.593
Water (5° C. 12M, hemi calcium salt): 5.03 % W/W
Description (25° C./60% RH 3M): White
Impurity RRT 1.096 (25° C./60% RH 3M): 0.214
Impurity RRT 1.439 (25° C./60% RH 3M): 0.158
Impurity RRT 1.596 (25° C./60% RH 3M): 0.067
Impurity RRT 1.698 (25° C./60% RH 3M): 0.065
Assay [1]: 98.15 % W/W
Highest Impurity [1]: 0.427
Impurity RRT 0.935 [1]: 0.383
Impurity RRT 1.045 [1]: 0.427
Impurity RRT 1.64 [1]: 0.051
Total Impurity [1]: 1.37
Water [1]: 4.74 % W/W
Assay (25° C./60% RH 6M): 98.15 % W/W
Description (25° C./60% RH 6M): White
Highest Impurity (25° C./60% RH 6M): 0.405
Impurity RRT 0.138 (25° C./60% RH 6M): 0.113
Impurity RRT 0.935 (25° C./60% RH 6M): 0.338
Impurity RRT 1.045 (25° C./60% RH 6M): 0.405
Impurity RRT 1.096 (25° C./60% RH 6M): 0.233
Impurity RRT 1.439 (25° C./60% RH 6M): 0.142
Impurity RRT 1.596 (25° C./60% RH 6M): 0.066
Impurity RRT 1.640 (25° C./60% RH 6M): 0.035
Impurity RRT 1.698 (25° C./60% RH 6M): 0.056
Total Impurity (25° C./60% RH 6M): 1.388
Water (25° C./60% RH 6M): 5.04 % W/W
Description (25° C./60% RH 9M): White
Impurity RRT 0.138 (25° C./60% RH 9M): 0.111
Impurity RRT 1.096 (25° C./60% RH 9M): 0.212
Impurity RRT 1.183 (25° C./60% RH 9M): 0.039
Impurity RRT 1.439 (25° C./60% RH 9M): 0.155
Impurity RRT 1.596 (25° C./60% RH 9M): 0.042
Impurity RRT 1.698 (25° C./60% RH 9M): 0.063
Assay [2]: 98.06 % W/W
Highest Impurity [2]: 0.389
Impurity RRT 0.935 [2]: 0.375
Impurity RRT 1.045 [2]: 0.389
Impurity RRT 1.640 [2]: 0.045
Total Impurity [2]: 1.431
Water [2]: 5.31 % W/W
Description (25° C./60% RH 12M): White
Impurity RRT 0.138 (25° C./60% RH 12M): 0.199
Impurity RRT 1.096 (25° C./60% RH 12M): 0.212
Impurity RRT 1.183 (25° C./60% RH 12M): 0.036
